Results: paper PMC4503722, “Novel Phenotypic Outcomes Identified for a Public Collection of Approved Drugs from a Publicly Accessible Panel of Assays” (PLoS ONE, 2015)

Target: T1, hKDR (Homo sapiens, UniProt P35968)
T1 construct: purchased Cerep (LANCE kinase assay platform, contract assay)
Experiment: Cerep LANCE kinase assay hKDR (S1 assay 32)
Format: biochemical
Conditions: not given

T1 sequence (P35968 20-1356): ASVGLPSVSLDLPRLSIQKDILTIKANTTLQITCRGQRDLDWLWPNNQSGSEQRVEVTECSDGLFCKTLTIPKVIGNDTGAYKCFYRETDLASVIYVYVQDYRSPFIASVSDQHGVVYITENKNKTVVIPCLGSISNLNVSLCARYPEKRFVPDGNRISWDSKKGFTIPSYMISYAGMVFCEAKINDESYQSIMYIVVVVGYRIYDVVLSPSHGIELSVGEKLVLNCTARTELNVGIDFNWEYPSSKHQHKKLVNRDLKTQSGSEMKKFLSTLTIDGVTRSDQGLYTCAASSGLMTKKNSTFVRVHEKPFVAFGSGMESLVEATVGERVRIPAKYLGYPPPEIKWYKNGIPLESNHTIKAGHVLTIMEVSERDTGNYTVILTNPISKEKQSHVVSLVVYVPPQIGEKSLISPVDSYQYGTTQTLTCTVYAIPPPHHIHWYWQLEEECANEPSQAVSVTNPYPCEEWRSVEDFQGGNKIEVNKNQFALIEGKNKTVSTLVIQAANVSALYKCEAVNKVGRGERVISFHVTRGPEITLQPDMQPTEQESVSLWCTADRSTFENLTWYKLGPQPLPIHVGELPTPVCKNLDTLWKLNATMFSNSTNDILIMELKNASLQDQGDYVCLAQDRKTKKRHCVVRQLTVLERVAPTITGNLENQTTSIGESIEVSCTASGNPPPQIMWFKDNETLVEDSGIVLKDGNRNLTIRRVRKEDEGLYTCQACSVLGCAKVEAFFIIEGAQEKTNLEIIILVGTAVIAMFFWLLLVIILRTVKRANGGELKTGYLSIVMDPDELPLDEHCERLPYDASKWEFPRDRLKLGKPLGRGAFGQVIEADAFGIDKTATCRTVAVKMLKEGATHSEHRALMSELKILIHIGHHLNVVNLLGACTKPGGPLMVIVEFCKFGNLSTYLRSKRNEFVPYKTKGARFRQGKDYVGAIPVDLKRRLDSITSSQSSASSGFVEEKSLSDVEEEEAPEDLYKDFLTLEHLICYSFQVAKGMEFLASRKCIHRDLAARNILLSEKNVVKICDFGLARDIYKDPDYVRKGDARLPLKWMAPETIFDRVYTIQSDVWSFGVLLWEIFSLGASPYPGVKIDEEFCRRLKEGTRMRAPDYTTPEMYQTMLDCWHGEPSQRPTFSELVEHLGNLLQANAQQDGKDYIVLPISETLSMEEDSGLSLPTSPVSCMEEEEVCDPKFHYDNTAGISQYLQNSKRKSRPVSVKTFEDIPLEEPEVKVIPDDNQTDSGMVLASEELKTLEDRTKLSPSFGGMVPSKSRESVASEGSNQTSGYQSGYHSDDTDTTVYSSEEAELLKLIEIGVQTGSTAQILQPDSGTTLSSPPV

Question: Which “IC50/EC50, hKDR LANCE (assay number 32)” value does the source give for `COC(=O)c1nc(Cl)c(Cl)nc1N` [NCGC00253704-01] here?
Answer: > 20 µM

Same assay, conditions: assay number 32

Question: `CCCOc1ccc2nc(NC(=O)OC)[nH]c2c1` [NCGC00018238-09] was tested. Which “hKDR LANCE IC50/EC50” value did it give?
Answer: > 20 µM

Question: `CCCCC1C(=O)N(c2ccccc2)N(c2ccc(O)cc2)C1=O` (centres unmarked) [NCGC00094748-07] was tested. Which “hKDR LANCE IC50/EC50” value did it give?
Answer: > 20 µM

Tested on: alkaline phosphatase (ALP) activity in C2C12 cells
Experiment: not given
Format: cell-based
Conditions: assay number 6; concentration response

Question: With `CCCOc1ccc2nc(NC(=O)OC)[nH]c2c1` [NCGC00018238-09] as the compound, how does the “WntCondMedia_Alk Phos C2C12 IC50/EC50” value read?
Answer: 0.0881 µM

Question: For `CCCCC1C(=O)N(c2ccccc2)N(c2ccc(O)cc2)C1=O` (centres unmarked) [NCGC00094748-07], which “WntCondMedia_Alk Phos C2C12 IC50/EC50” value is on record?
Answer: 4.9189 µM

Same assay, conditions: concentration response

Question: Which “IC50/EC50, WntCondMedia_Alk Phos C2C12 (assay number 6)” value does the source give for `COC(=O)c1nc(Cl)c(Cl)nc1N` [NCGC00253704-01] here?
Answer: 0.1565 µM

Tested on: ECFC/ADSC co-culture cell nuclei number
Experiment: not given
Conditions: not given

Question: Which “VEGF_ADSC\ECFC Angio Hoechst NucArea IC50/EC50” value does the source give for `CCCOc1ccc2nc(NC(=O)OC)[nH]c2c1` [NCGC00018238-09] here?
Answer: > 10 µM

Question: Which “VEGF_ADSC\ECFC Angio Hoechst NucArea IC50/EC50” value does the source give for `CCCCC1C(=O)N(c2ccccc2)N(c2ccc(O)cc2)C1=O` (centres unmarked) [NCGC00094748-07] here?
Answer: 8.826 µM

Question: With `COC(=O)c1nc(Cl)c(Cl)nc1N` [NCGC00253704-01] as the compound, how does the “IC50/EC50, VEGF_ADSC\ECFC Angio Hoechst NucArea (assay number 3)” value read?
Answer: 6.796 µM

Tested on: nuclear β-catenin in C2C12 cells
Experiment: cells
Format: cell-based
Conditions: assay number 5; concentration response

Question: With `CCCOc1ccc2nc(NC(=O)OC)[nH]c2c1` [NCGC00018238-09] as the compound, how does the “WntCondMedia_bCatenin C2C12 IC50/EC50” value read?
Answer: 0.3653 µM

Question: Which “WntCondMedia_bCatenin C2C12 IC50/EC50” value does the source give for `CCCCC1C(=O)N(c2ccccc2)N(c2ccc(O)cc2)C1=O` (centres unmarked) [NCGC00094748-07] here?
Answer: > 20 µM

Same assay, conditions: concentration response

Question: For `COC(=O)c1nc(Cl)c(Cl)nc1N` [NCGC00253704-01], which “IC50/EC50, WntCondMedia_bCatenin C2C12 (assay number 5)” value is on record?
Answer: 0.3085 µM

Tested on: HeLa cells
Experiment: cells
Format: cell-based
Conditions: 2N

Question: `COC(=O)c1nc(Cl)c(Cl)nc1N` [NCGC00253704-01] was tested. Which “IC50/EC50, Hela CellCycMod PI 2N (assay number 14)” value did it give?
Answer: 0.3341 µM

Same assay, conditions: 4N

Question: How did the “IC50/EC50, Hela CellCycMod PI 4N (assay number 16)” value turn out when `COC(=O)c1nc(Cl)c(Cl)nc1N` [NCGC00253704-01] was run?
Answer: 0.5115 µM

Same assay, conditions: Cell Number

Question: With `COC(=O)c1nc(Cl)c(Cl)nc1N` [NCGC00253704-01] as the compound, how does the “IC50/EC50, Hela CellCycMod PI Cell Number (assay number 18)” value read?
Answer: 0.4075 µM

Same assay, conditions: MI

Question: For `COC(=O)c1nc(Cl)c(Cl)nc1N` [NCGC00253704-01], which “IC50/EC50, Hela CellCycMod PI MI (assay number 17)” value is on record?
Answer: 0.8681 µM

Same assay, conditions: S Phase

Question: With `COC(=O)c1nc(Cl)c(Cl)nc1N` [NCGC00253704-01] as the compound, how does the “IC50/EC50, Hela CellCycMod PI S Phase (assay number 15)” value read?
Answer: > 10 µM

Same assay, conditions: assay number 14; 2N

Question: For `CCCOc1ccc2nc(NC(=O)OC)[nH]c2c1` [NCGC00018238-09], which “Hela CellCycMod PI 2N IC50/EC50” value is on record?
Answer: 0.0622 µM

Question: `CCCCC1C(=O)N(c2ccccc2)N(c2ccc(O)cc2)C1=O` (centres unmarked) [NCGC00094748-07] was tested. Which “Hela CellCycMod PI 2N IC50/EC50” value did it give?
Answer: > 10 µM

Same assay, conditions: assay number 15; S phase

Question: How did the “Hela CellCycMod PI S Phase IC50/EC50” value turn out when `CCCCC1C(=O)N(c2ccccc2)N(c2ccc(O)cc2)C1=O` (centres unmarked) [NCGC00094748-07] was run?
Answer: > 10 µM

Same assay, conditions: assay number 16; 4N

Question: How did the “Hela CellCycMod PI 4N IC50/EC50” value turn out when `CCCOc1ccc2nc(NC(=O)OC)[nH]c2c1` [NCGC00018238-09] was run?
Answer: 0.0567 µM

Question: Which “Hela CellCycMod PI 4N IC50/EC50” value does the source give for `CCCCC1C(=O)N(c2ccccc2)N(c2ccc(O)cc2)C1=O` (centres unmarked) [NCGC00094748-07] here?
Answer: > 10 µM

Same assay, conditions: assay number 17; MI

Question: With `CCCOc1ccc2nc(NC(=O)OC)[nH]c2c1` [NCGC00018238-09] as the compound, how does the “Hela CellCycMod PI MI IC50/EC50” value read?
Answer: 0.0775 µM

Question: `CCCCC1C(=O)N(c2ccccc2)N(c2ccc(O)cc2)C1=O` (centres unmarked) [NCGC00094748-07] was tested. Which “Hela CellCycMod PI MI IC50/EC50” value did it give?
Answer: > 10 µM

Same assay, conditions: assay number 18; cell number

Question: How did the “Hela CellCycMod PI Cell Number IC50/EC50” value turn out when `CCCOc1ccc2nc(NC(=O)OC)[nH]c2c1` [NCGC00018238-09] was run?
Answer: 0.0467 µM

Question: How did the “Hela CellCycMod PI Cell Number IC50/EC50” value turn out when `CCCCC1C(=O)N(c2ccccc2)N(c2ccc(O)cc2)C1=O` (centres unmarked) [NCGC00094748-07] was run?
Answer: 1.6628 µM

Target: T2, hJAK2 (Homo sapiens, UniProt O60674)
T2 construct: purchased Cerep (LANCE kinase assay platform, contract assay)
Experiment: Cerep LANCE kinase assay hJAK2 (S1 assay 33)
Format: biochemical
Conditions: not given

T2 sequence (O60674 whole entry): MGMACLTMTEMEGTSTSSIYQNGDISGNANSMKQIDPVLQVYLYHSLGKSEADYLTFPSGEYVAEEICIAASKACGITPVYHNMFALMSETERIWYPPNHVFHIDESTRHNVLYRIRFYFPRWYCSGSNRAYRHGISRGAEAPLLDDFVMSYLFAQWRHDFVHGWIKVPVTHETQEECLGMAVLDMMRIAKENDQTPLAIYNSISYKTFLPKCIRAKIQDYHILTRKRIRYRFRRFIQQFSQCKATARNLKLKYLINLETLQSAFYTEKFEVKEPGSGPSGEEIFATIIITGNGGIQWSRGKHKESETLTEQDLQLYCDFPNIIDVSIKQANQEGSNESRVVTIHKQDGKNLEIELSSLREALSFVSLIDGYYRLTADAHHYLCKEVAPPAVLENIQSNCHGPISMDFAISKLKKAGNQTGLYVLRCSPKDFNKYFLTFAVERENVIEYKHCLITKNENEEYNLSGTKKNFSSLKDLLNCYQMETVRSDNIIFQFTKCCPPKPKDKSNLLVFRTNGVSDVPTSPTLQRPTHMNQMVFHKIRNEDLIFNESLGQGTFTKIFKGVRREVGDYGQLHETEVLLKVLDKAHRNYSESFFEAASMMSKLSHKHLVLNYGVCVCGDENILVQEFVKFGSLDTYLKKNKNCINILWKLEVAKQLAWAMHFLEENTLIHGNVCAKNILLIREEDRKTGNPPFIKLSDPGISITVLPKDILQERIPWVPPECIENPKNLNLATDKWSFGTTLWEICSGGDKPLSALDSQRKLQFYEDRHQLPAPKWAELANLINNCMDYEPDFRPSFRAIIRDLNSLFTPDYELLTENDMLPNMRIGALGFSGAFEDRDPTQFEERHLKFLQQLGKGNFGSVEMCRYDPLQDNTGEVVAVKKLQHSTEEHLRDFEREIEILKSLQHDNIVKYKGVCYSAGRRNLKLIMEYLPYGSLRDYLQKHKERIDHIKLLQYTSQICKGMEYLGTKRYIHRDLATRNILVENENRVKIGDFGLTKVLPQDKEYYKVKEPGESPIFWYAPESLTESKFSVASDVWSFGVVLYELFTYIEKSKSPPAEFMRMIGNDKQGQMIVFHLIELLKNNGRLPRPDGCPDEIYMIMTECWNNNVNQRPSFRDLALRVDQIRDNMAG

Question: Which “IC50/EC50, hJAK2 LANCE (assay number 33)” value does the source give for `COC(=O)c1nc(Cl)c(Cl)nc1N` [NCGC00253704-01] here?
Answer: > 20 µM

Same assay, conditions: assay number 33

Question: For `CCCOc1ccc2nc(NC(=O)OC)[nH]c2c1` [NCGC00018238-09], which “hJAK2 LANCE IC50/EC50” value is on record?
Answer: > 20 µM

Question: `CCCCC1C(=O)N(c2ccccc2)N(c2ccc(O)cc2)C1=O` (centres unmarked) [NCGC00094748-07] was tested. Which “hJAK2 LANCE IC50/EC50” value did it give?
Answer: > 20 µM

Target: T3, hGSK3b (Homo sapiens, UniProt P49841)
T3 construct: purchased Cerep (LANCE kinase assay platform, contract assay)
Experiment: Cerep LANCE kinase assay hGSK3b (S1 assay 34)
Format: biochemical
Conditions: not given

T3 sequence (P49841 whole entry): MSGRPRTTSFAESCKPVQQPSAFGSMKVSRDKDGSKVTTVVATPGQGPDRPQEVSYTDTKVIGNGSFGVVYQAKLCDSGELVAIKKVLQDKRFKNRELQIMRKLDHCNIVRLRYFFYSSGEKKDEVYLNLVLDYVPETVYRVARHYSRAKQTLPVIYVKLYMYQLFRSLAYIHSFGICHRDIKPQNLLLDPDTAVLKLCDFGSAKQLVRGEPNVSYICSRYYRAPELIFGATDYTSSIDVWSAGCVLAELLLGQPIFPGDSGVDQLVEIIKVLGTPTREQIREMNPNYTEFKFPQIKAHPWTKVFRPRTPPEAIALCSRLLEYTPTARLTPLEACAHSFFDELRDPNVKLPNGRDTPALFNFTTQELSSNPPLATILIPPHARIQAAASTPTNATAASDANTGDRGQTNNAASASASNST

Question: Which “IC50/EC50, hGSK3b LANCE (assay number 34)” value does the source give for `COC(=O)c1nc(Cl)c(Cl)nc1N` [NCGC00253704-01] here?
Answer: > 20 µM

Same assay, conditions: assay number 34

Question: `CCCOc1ccc2nc(NC(=O)OC)[nH]c2c1` [NCGC00018238-09] was tested. Which “hGSK3b LANCE IC50/EC50” value did it give?
Answer: > 20 µM

Question: Which “hGSK3b LANCE IC50/EC50” value does the source give for `CCCCC1C(=O)N(c2ccccc2)N(c2ccc(O)cc2)C1=O` (centres unmarked) [NCGC00094748-07] here?
Answer: > 20 µM

Target: T4, hFLT3 (Homo sapiens, UniProt P36888)
T4 construct: purchased Cerep (LANCE kinase assay platform, contract assay)
Experiment: Cerep LANCE kinase assay hFLT3 (S1 assay 35)
Format: biochemical
Conditions: not given

T4 sequence (P36888 27-993): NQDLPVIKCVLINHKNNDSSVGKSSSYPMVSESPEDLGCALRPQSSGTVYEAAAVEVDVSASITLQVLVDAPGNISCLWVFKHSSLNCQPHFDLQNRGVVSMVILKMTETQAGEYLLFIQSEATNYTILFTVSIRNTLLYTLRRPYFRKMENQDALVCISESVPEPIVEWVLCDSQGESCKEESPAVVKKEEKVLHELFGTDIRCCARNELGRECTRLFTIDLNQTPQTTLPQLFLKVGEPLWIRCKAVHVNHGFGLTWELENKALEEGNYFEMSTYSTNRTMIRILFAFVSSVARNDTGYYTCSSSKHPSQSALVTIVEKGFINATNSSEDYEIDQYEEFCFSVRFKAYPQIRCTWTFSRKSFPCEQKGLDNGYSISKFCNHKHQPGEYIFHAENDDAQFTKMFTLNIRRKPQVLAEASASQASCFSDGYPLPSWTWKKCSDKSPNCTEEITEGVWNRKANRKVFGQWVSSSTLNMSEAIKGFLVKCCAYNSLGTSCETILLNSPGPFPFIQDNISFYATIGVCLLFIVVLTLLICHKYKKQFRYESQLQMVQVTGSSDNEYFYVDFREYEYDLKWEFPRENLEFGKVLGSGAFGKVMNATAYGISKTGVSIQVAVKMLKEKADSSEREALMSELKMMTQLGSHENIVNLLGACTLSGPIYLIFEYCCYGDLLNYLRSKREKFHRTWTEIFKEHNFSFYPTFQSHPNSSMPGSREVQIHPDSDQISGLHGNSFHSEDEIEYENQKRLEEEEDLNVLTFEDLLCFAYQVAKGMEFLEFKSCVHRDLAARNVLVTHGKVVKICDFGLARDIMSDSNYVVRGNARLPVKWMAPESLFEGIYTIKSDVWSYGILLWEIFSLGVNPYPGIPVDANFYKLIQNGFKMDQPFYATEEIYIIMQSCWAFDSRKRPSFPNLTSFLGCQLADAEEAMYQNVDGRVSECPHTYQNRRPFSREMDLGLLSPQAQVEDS

Question: For `COC(=O)c1nc(Cl)c(Cl)nc1N` [NCGC00253704-01], which “IC50/EC50, hFLT3 LANCE (assay number 35)” value is on record?
Answer: 2.86 µM

Same assay, conditions: assay number 35

Question: For `CCCOc1ccc2nc(NC(=O)OC)[nH]c2c1` [NCGC00018238-09], which “hFLT3 LANCE IC50/EC50” value is on record?
Answer: > 20 µM

Question: For `CCCCC1C(=O)N(c2ccccc2)N(c2ccc(O)cc2)C1=O` (centres unmarked) [NCGC00094748-07], which “hFLT3 LANCE IC50/EC50” value is on record?
Answer: > 20 µM

Target: T5, hp70S6K1 (RPS6KB1) (Homo sapiens, UniProt P23443)
T5 construct: purchased Cerep (LANCE kinase assay platform, contract assay)
Experiment: Cerep LANCE kinase assay hp70S6K1 (S1 assay 31)
Format: biochemical
Conditions: not given

T5 sequence (P23443 whole entry): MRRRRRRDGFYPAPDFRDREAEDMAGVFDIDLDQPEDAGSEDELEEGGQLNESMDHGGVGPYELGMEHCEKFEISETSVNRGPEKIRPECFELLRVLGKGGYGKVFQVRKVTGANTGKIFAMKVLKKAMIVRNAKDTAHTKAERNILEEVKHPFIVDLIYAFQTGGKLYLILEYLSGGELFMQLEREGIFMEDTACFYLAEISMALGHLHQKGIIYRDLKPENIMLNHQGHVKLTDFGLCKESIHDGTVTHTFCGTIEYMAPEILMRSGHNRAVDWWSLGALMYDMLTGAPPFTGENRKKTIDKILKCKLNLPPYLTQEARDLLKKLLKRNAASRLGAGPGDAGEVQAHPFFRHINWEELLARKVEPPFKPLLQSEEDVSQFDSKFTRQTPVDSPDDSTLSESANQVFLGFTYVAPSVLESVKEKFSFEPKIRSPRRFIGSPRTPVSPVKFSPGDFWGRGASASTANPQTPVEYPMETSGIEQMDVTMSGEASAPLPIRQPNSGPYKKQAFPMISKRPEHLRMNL

Question: Which “IC50/EC50, hp70S6K1 LANCE (assay number 31)” value does the source give for `COC(=O)c1nc(Cl)c(Cl)nc1N` [NCGC00253704-01] here?
Answer: > 20 µM

Same assay, conditions: assay number 31

Question: `CCCOc1ccc2nc(NC(=O)OC)[nH]c2c1` [NCGC00018238-09] was tested. Which “hp70S6K1 LANCE IC50/EC50” value did it give?
Answer: > 20 µM

Question: With `CCCCC1C(=O)N(c2ccccc2)N(c2ccc(O)cc2)C1=O` (centres unmarked) [NCGC00094748-07] as the compound, how does the “hp70S6K1 LANCE IC50/EC50” value read?
Answer: > 20 µM

Tested on: endothelial tube formation in co-cultures of ECFCs and ADSCs treated with VEGF
Experiment: cells
Format: cell-based, human
Conditions: not given

Question: Which “VEGF_ADSC\ECFC Angio CD31 TubeArea IC50/EC50” value does the source give for `CCCOc1ccc2nc(NC(=O)OC)[nH]c2c1` [NCGC00018238-09] here?
Answer: 0.3276 µM

Question: With `CCCCC1C(=O)N(c2ccccc2)N(c2ccc(O)cc2)C1=O` (centres unmarked) [NCGC00094748-07] as the compound, how does the “VEGF_ADSC\ECFC Angio CD31 TubeArea IC50/EC50” value read?
Answer: 3.2937 µM

Question: `COC(=O)c1nc(Cl)c(Cl)nc1N` [NCGC00253704-01] was tested. Which “IC50/EC50, VEGF_ADSC\ECFC Angio CD31 TubeArea (assay number 2)” value did it give?
Answer: 0.8652 µM
